Reference: US12371404B2, “Fused bicyclic alkylene linked imidodicarbonimidic diamides, methods for synthesis, and uses in therapy” (NovaTarg, Inc., priority 2016, dated 2025)
Structures can show the parent of a compound that is named as a salt. Where two headings read alike, the source gives them in different places.

Key:
human OCT1 = biological target: T1, human OCT1 (Homo sapiens, UniProt O15245); assay: Oxygen consumption rate (OCR) assay, HEK293 cells transfected with OCT1; conditions: HEK293 cells stably transfected with human OCT1; MitoXpress Xtra, 2 hours
T1 sequence (O15245 1-554): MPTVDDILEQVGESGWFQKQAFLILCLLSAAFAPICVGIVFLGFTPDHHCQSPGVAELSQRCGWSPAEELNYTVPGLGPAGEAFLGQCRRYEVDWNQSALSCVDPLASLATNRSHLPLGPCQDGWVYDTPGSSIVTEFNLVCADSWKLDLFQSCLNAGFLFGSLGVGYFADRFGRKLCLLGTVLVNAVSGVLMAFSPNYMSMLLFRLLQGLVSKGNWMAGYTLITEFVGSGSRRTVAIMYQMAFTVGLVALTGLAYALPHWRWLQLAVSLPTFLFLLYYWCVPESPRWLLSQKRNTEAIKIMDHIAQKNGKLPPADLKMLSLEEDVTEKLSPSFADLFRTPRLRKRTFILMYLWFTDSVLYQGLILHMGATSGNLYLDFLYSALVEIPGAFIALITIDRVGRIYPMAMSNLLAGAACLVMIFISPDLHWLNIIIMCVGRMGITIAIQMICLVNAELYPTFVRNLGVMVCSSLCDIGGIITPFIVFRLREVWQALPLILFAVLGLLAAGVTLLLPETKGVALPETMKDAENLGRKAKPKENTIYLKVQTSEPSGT
Source text: (§1) Diabetologia 2011, 54 (12): 3101-3110, each incorporated by reference with regard to such testing. The compounds of the present invention are similarly tested in an oxygen consumption rate (OCR) assay to evaluate the functional activity of test compounds in cells.
(§2) In brief, the assay uses HEK293 cells stably transfected with the human OCT1, OCT2, OCT3, PMAT, or MATE1 transporters to determine a compound's relative transporter selectivity and its effect on the rate of oxygen consumption relative to control (Neo) cells. The MitoXpress Xtra oxygen-sensitive fluorophore is used to monitor oxygen consumption rates in the presence and absence of compound treatments. The analogs were tested at eight (8) different concentrations in triplicate to determine a relative IC50 value.
(§3) A summary description of the protocol is as follows:
HEK293 cells transformed with human organic cation transporters were plated in collagen coated, 96-well black-walled microclear plates (Greiner-Bio 1, #655956) at 60,000 cells per well in growth medium (DMEM (LG), 10% FBS, 400 μg/ml G418). Cells were incubated overnight to allow attachment. The outer columns (1 and 12) are not seeded with cells, as controls. The next day, plating medium was removed and replaced with 150 μL of assay medium (DMEM/F12 (PRF), 5% FBS, antibiotics) containing compound dilutions. A 3-fold serial dilution was prepared in the assay medium and transferred to the empty wells. The outer columns and column 11 received 150 μL of assay medium only. […] Dual read time-resolved fluorescence (BMG FluoStar Galaxy reader) was measured over 2 hours with measurements taken every 2 minutes. […] Background TRF values from A1-D1 were subtracted from all readings. A ratiometric analysis was performed to determine changes in the Lifetime fluorescence signal:Lifetime (μs) [T]=(D2−D1)/ln(W1/W2), where D is delay; W is fluorescence window value at each time point. Lifetime slopes were calculated using each Lifetime measurement over time. IC50 values were determined by plotting lifetime slope values vs. compound concentration.

control (Neo) cells = assay: Oxygen consumption rate (OCR) assay, control (Neo) HEK293 cells; assay type: cell-based; conditions: Homo sapiens, read-out: Oxygen Consumption Rate (OCR) IC50, Neo
Source text: as §1, §2, §3
(§4) HEK293 cells transformed with human organic cation transporters were plated in collagen coated, 96-well black-walled microclear plates (Greiner-Bio 1, #655956) at 60,000 cells per well in growth medium (DMEM (LG), 10% FBS, 400 μg/ml G418). Cells were incubated overnight to allow attachment. The outer columns (1 and 12) are not seeded with cells, as controls. The next day, plating medium was removed and replaced with 150 μL of assay medium (DMEM/F12 (PRF), 5% FBS, antibiotics) containing compound dilutions. A 3-fold serial dilution was prepared in the assay medium and transferred to the empty wells. The outer columns and column 11 received 150 μL of assay medium only. 10 μL of MitoXpress Xtra reagent was added to each test well, and 100 μL of pre-warmed mineral oil was overlayed in each well to create a seal. Dual read time-resolved fluorescence (BMG FluoStar Galaxy reader) was measured over 2 hours with measurements taken every 2 minutes. Excitation is 340 nm, Emission is 650 nm. For lifetime analysis, two measurements per well were taken: 1) delay of 30 μs, with a window of 30 μs; and 2) delay of 70 μs with a window of 30 μs. Background TRF values from A1-D1 were subtracted from all readings. A ratiometric analysis was performed to determine changes in the Lifetime fluorescence signal:Lifetime (μs) [T]=(D2−D1)/ln(W1/W2), where D is delay; W is fluorescence window value at each time point. Lifetime slopes were calculated using each Lifetime measurement over time. IC50 values were determined by plotting lifetime slope values vs. compound concentration.

human MATE1 = biological target: T2, human MATE1 (Homo sapiens, UniProt Q96FL8); assay: Oxygen consumption rate (OCR) assay, HEK293 cells transfected with MATE1
T2 sequence (Q96FL8 1-570): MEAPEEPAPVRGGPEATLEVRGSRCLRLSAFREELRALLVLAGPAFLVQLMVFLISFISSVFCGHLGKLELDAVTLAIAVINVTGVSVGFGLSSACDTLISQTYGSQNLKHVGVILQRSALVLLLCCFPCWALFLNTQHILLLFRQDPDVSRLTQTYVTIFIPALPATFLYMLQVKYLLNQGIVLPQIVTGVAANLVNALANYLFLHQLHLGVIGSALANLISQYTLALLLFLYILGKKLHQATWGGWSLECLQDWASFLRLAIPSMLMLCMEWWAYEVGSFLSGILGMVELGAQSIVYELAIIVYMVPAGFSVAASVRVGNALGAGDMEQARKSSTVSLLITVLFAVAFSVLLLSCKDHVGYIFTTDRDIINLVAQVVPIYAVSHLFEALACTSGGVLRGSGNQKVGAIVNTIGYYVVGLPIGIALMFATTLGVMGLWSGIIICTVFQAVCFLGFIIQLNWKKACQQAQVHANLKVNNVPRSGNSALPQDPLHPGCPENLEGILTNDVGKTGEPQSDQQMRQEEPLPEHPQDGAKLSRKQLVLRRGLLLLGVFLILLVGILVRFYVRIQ
Source text: The compounds of the present invention are similarly tested in an oxygen consumption rate (OCR) assay to evaluate the functional activity of test compounds in cells.
as §2, §3
as §4, with “Cells” for “HEK293 cells transformed with human organic cation transporters were plated in collagen coated, 96-well black-walled microclear plates (Greiner-Bio 1, #655956) at 60,000 cells per well in growth medium (DMEM (LG), 10% FBS, 400 μg/ml G418). Cells”

human PMAT = biological target: T3, human PMAT (Homo sapiens, UniProt Q7RTT9); assay: Oxygen consumption rate (OCR) assay, HEK293 cells transfected with PMAT; assay type: cell-based; conditions: for inhibition at 10 µM: HEK293 cells with human PMAT
T3 construct: expressed in transfected cells; host or cells: HEK293
T3 sequence (Q7RTT9 1-530): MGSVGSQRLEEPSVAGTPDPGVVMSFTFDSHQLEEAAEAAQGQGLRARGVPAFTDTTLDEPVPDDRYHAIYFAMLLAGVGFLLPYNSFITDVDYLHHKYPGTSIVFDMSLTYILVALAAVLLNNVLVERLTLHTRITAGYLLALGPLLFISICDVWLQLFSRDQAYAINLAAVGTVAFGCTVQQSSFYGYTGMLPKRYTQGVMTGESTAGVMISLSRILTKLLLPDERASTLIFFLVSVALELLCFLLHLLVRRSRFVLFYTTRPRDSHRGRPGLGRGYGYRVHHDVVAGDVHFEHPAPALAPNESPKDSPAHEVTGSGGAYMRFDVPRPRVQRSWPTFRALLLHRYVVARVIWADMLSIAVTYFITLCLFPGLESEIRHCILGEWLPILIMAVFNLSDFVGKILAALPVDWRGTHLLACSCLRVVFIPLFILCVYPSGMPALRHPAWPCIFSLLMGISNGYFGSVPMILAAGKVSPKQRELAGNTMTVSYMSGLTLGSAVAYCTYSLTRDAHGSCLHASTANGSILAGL
Source text: as §1, §2, §3, §4

[1] = control (Neo) HEK293 cells, MitoXpress Xtra, 2 hours
[2] = HEK293 cells stably transfected with human PMAT, MitoXpress Xtra, 2 hours, read-out: Oxygen Consumption Rate (OCR) IC50, PMAT

Cc1[nH]c2ccccc2c1CCNC(=N)NC(=N)N [Ex 1, 1-[2-(2-methyl-1H-indol-3-yl)ethyl]imidodicarbonimide diamide]
Oxygen Consumption Rate (OCR) IC50, OCT 1 (human OCT1): 1267 µM
IC50 (control (Neo) cells; HEK293, 2 h): > 5000 µM
inhibition at 1000 µM (human MATE1; HEK293, read-out: Oxygen Consumption Rate (OCR), MATE 1, % Inhibition at 1000 μM test concentration): 30%
IC50 (human PMAT): 3 µM

Cl.N=C(N)NC(=N)NCCc1c[nH]c2ccc(F)cc12 [Ex 2, 1-[2-(5-fluoro-1H-indol-3-yl)ethyl]imidodicarbonimide diamide hydrochloride]
Oxygen Consumption Rate (OCR) IC50, OCT 1 (human OCT1): >1000 µM
IC50 (control (Neo) cells; HEK293, 2 h): > 1000 µM
IC50 (human MATE1): > 1000 µM
IC50 (human PMAT): 5 µM

CN(C)C(=N)NC(=N)NCCc1c[nH]c2ccc(C(F)(F)F)cc12 [Ex 32, 3-(2-(5-trifluoromethyl-1H-indol-3-yl)ethyl)-1,1-dimethyl imidodicarbonimide diamide hydrochloride]
IC50 (control (Neo) cells; [1]): 397 µM
IC50 (human MATE1): 681 µM
inhibition at 10 µM (human PMAT): 10%

N=C(N)NC(=N)NCCc1c[nH]c2cccc(Cl)c12 [Ex 34, 1-[2-(4-chloro-1H-indol-3-yl)ethyl]imidodicarbonimide diamide, trifluoroacetic acid salt]
Oxygen Consumption Rate (OCR) IC50, OCT 1 (human OCT1): 3 µM
IC50 (control (Neo) cells; HEK293, 2 h): 184 µM
IC50 (human MATE1): 19 µM
IC50 (human PMAT): 2 µM

N=C(N)NC(=N)NCCc1c[nH]c2cc(Cl)ccc12 [Ex 35, 1-[2-(6-chloro-1H-indol-3-yl)ethyl]imidodicarbonimide diamide, trifluoroacetic acid salt]
IC50 (control (Neo) cells; [1]): 205 µM
IC50 (human MATE1): 20 µM
inhibition at 10 µM (human PMAT): 68%

N=C(N)NC(=N)NCCc1c[nH]c2c(Cl)cccc12 [Ex 36, 1-[2-(7-chloro-1H-indol-3-yl)ethyl]imidodicarbonimide diamide, trifluoroacetic acid salt]
IC50 (control (Neo) cells; [1]): 409 µM
IC50 (human MATE1): 26 µM
inhibition at 10 µM (human PMAT): 55%

N=C(N)NC(=N)NCCc1c[nH]c2c(F)c(F)c(F)cc12 [Ex 41, 1-[2-(5,6,7-trifluoro-1H-indol-3-yl)ethyl]imidodicarbonimide diamide, trifluoroacetic acid salt]
IC50 (control (Neo) cells; HEK293, 2 h): 460 µM
IC50 (human MATE1): 675 µM
IC50 (human PMAT): 6 µM

N=C(N)NC(=N)NCCc1c[nH]c2c(F)c(F)c(F)c(F)c12 [Ex 42, 1-[2-(4,5,6,7-tetrafluoro-1H-indol-3-yl)ethyl]imidodicarbonimide diamide, trifluoroacetic acid salt]
IC50 (control (Neo) cells; HEK293, 2 h): 129 µM
IC50 (human MATE1): 183 µM
IC50 (human PMAT): 5 µM

N=C(N)NC(=N)NCCc1c[nH]c2ncc(F)cc12 [Ex 43, 1-(2-(5-fluoro-1H-pyrrolo[2,3-b]pyridin-3-yl)ethyl)imidodicarbonimide diamide, trifluoroacetic acid salt]
IC50 (control (Neo) cells; [1]): 11000 µM
IC50 (human MATE1): 2230 µM
IC50 (human PMAT; [2]): 23 µM

N=C(N)NC(=N)NCCc1c[nH]c2nc(F)ccc12 [Ex 45, 1-(2-(6-fluoro-1H-pyrrolo[2,3-b]pyridin-3-yl)ethyl)imidodicarbonimide diamide, trifluoroacetic acid salt]
IC50 (control (Neo) cells; [1]): 11400 µM
IC50 (human MATE1): > 3000 µM
IC50 (human PMAT; [2]): 14 µM

N=C(N)NC(=N)NCCc1c[nH]c2cc(Cl)c(F)cc12 [Ex 48, 1-[2-(6-chloro-5-fluoro-1H-indol-3-yl)ethyl]imidodicarbonimide diamide, trifluoroacetic acid salt]
IC50 (control (Neo) cells; [1]): 210 µM
IC50 (human MATE1): 101 µM
inhibition at 10 µM (human PMAT): 61%

N=C(N)NC(=N)NCc1c[nH]c2ccccc12 [Ex 55, 1-[(1H-indol-3-yl)methyl]imidodicarbonimide diamide, trifluoroacetic acid salt]
IC50 (control (Neo) cells; [1]): 1400 µM
IC50 (human MATE1): 1650 µM
inhibition at 10 µM (human PMAT): 10%

Cc1ccc2c(CCNC(=N)NC(=N)N)c[nH]c2c1 [Ex 56, 1-[2-(6-methyl-1H-indol-3-yl)ethyl]imidodicarbonimide diamide, trifluoroacetate salt]
IC50 (control (Neo) cells; [1]): 895 µM
IC50 (human MATE1): 769 µM
inhibition at 10 µM (human PMAT): 43%

N=C(N)NC(=N)NCCc1c[nH]c2ccc(OC(F)(F)F)cc12 [Ex 57, 1-[2-(5-trifluoromethoxy-1H-indol-3-yl)ethyl]imidodicarbonimide diamide, trifluoroacetic acid salt]
IC50 (control (Neo) cells; [1]): 255 µM
IC50 (human MATE1): 631 µM
inhibition at 10 µM (human PMAT): 6%

Cc1cccc2c(CCNC(=N)NC(=N)N)c[nH]c12 [Ex 59, 1-[2-(7-methyl-1H-indol-3-yl)ethyl]imidodicarbonimide diamide, trifluoroacetic acid salt]
IC50 (control (Neo) cells; [1]): 1290 µM
IC50 (human MATE1): 112 µM
inhibition at 10 µM (human PMAT): 47%
